# Source: patent publication US9085559B2, “Triazine-aryl-bis-indoles and process for preparation thereof” (COUNCIL OF SCIENTIFIC & INDUSTRIAL RESEARCH, priority 2010, dated 2015)
# How the values were obtained:
# [1] = tested on: airway hyperresponsiveness (AHR) in mouse model of asthma; assay: Airway hyperresponsiveness to methacholine in OVA sensitized and challenged mouse model of asthma; type: in vivo, BALB/c mice
# Procedure: The above protocols described in the present invention can be utilized similarly for the synthesis of numerous analogues of ‘triazine-aryl-bis-indole’ class of novel compounds represented by Formula I. • Scheme V • With reference to FIG. 9, mice were sensitized with ovalbumin (OVA) intraperitonially (i.p.) on days 0, 7 and 14 as shown in scheme V. Sham group mice were sensitized with only alum dissolved in PBS. From day 21 to 30, mice were exposed to aerosol of OVA (3%) inhalation 25 minutes daily in a Plexiglas chamber (20×20×10 cm^3). […]
# Airway responsiveness was measured by barometric plethysmography using whole-body plethysmography (WBP; Buxco, Troy, N.Y.) 12 hours after last saline or ovalbumin challenge. […] Enhanced pause (Penh) to methacholine as measured using barometric plethysmography is a valid indicator of bronchoconstriction in mice and can be used to measure AHR.
# FIG. 3. […] AHR was measured after allergen challenge with increasing concentrations of methacholine and MChPC200 was calculated. […]
# Airway responsiveness was measured by barometric plethysmography using whole-body plethysmography (WBP; Buxco, Troy, N.Y.) 12 hours after last saline or ovalbumin challenge. […]
# BALB/c 3T3 cell line = assay: Balb/c 3T3 Neutral Red Uptake (NRU) cytotoxicity assay; type: cell-based; details: for toxicity: NRU cytotoxicity test (FIG. 8)
# From the text: (§1) FIG. 8. IICT-TA67 is not toxic. To evaluate the cytotoxicity of test chemical (IICT-TA67) BALB/c 3T3 cell line was used for Neutral Red Uptake (NRU) cytotoxicity test. The test result has been used to determine IC50 for IICT-TA67 and acute oral toxicity (LD50) in rodent was predicted.
# (§2) Basal cytotoxicity of IICT-TA67 has been performed to measure IC50 and thereafter predict in vivo acute oral LD50 values in rodent by using Halle's Registry of cytotoxicity (RC) prediction model: log (LD50)=0.435×log (IC50)+0.625 (Halle, 1998; Spielmann et al., 1999). Balb/c 3T3 Neutral Red Dye Uptake (NRU) cytotoxicity assay procedure was adopted (Liebsch & Spielmann 1995). In brief 3T3 cell were grown in 96 well microtitre plates and exposed to IICT-TA-67. After 48-hour incubation, the test material was removed and Neutral red (NR) solution was applied to the cells. The cells were incubated again, the excess NR solution was removed and finally NR was eluted from the cells. The NRU was determined by using a microtitre plate reader to measure the optical density at 540 nm of the eluted dye in 96 well plate. A calculation of cell viability expressed as NRU was made for each concentration of the test chemical by using the mean NRU of 6 replicate values per test concentration. The cell viability value was compared with the mean NRU of all vehicle control values and relative cell viability was then expressed as percent of untreated vehicle control. […] Although the percentage of viability is slightly more than 95% at 50 μg/ml of IICT-67, 30 μg/ml (% viability of cells is 98%)
# [2] = as above; type: cell-based; details: mouse
# From the text: as §1, §2
compound,measurement,setting,value
"COc1ccc(C(c2[nH]c3ccccc3c2CC(=O)O)c2[nH]c3ccccc3c2CC(=O)O)cc1Oc1nc(NC2CC2)nc(NC2CC2)n1 [Compound 7, 2,2′-[2,2′-3-(4,6-bis-cyclopropylamino)-1,3,5-triazin-2-yl-oxy-4-methoxy-phenyl]-methylene-bis-(1H-indole-3,3-diyl)-diacetic acid]",MChPC200,"[1]; OVA/OVA mice, 0.1, 1 and 10 mg/kg orally twice per day, versus OVA/OVA/VEH",significantly attenuated the decrease in MChPC200
same,dose of maximum effect on MChPC200,"[1]; OVA/OVA mice, orally twice per day",0.1 mg/kg
same,% viability of cells,BALB/c 3T3 cell line; 30 μg/ml,98%
same,percentage of viability,BALB/c 3T3 cell line; 50 μg/ml,more than 95%
same,toxicity,BALB/c 3T3 cell line; listed as IICT-67,does not seem to be toxic to endothelial cells
same,toxicity,BALB/c 3T3 cell line; listed as IICT-TA67,not toxic
same,IC50 at 48 h,[2],32 µg/mL
